Measured values published in patent US12410220B2, “Modulation of mammalian cell lineage by synthetic immodulins” (priority 2021, dated 2025).
Marks after values point to notes of the source that are not given here. Square brackets hold non-standard residues; d marks the D form. Ends that are not written are not given here. Peptide text beside a SMILES is read from it. * marks the point of attachment. Pentanoyl(2-Pr) = CCCC(CCC)C(=O)*; Decanoyl = CCCCCCCCCC(=O)*

Legend:
[1] = tested on: HFF-1 human fibroblast cell line; assay: Collagen-1 ELISA in HFF-1 dermal fibroblasts; assay type: cell-based; settings: peptide 2 uM, 72 hour incubation
Description: Immodulin peptides have potential untility in the field of cosmetics. HFF-1 human fibroblast cell line was obtained from the American Type Culture Collection (ATCC). Cells were grown in a T-75 flask in DMEM Medium containing 10% fetal bovine serum and penicillin-streptomycin at 37° C. in a humidified, 5% CO2 incubator. Cells (100 µl, 2,000 cells/well) were plated in a 96-well plate and incubated overnight at 37° C. in a humidified, 5% CO2 incubator. Next day, 10 µl/well of compounds were added (quadruplicate wells). After 72 hour incubation with the compound, supernatants were collected for Collagen-1 ELISA assay and cell viability was measured in a luminometer after the addition of 100 IL/well CellTiterGlo reagent (Promega Inc, Madison, WI) as recommended by the manufacturer. Collagen stimulating activity of immodulin peptides in HFF-1 dermal fibroblasts: Peptides were added to cells at 2 uM. COL1 immunoreactivity was measured in the supernatants of cultured cells by ELISA using a rabbit monoclonal anti-COL1 primary antibody (Abcam, Cambridge, MA). Control (buffer) value of immunoreactivity was set to 100.

[2] = tested on: rat scald-endotoxemia model; assay: Experiment 5B rat scald-endotoxemia model; assay type: in vivo, Sprague Dawley rats
Description: Experiment 5B. This study explores the effect of immX extensions on sV-nephrilin (SEQ ID NO:31) vs V-nephrilin, as well as in a longer peptide also containing the immX extension (Traumatin-3N1A: SEQ ID NO:35) on in vivo efficacy in a rat scald-endotoxemia model. Animals were treated with peptides using a widely used protocol previously described (see, for example, U.S. Pat. No. 10,369,191). Adult Sprague Dawley rats of both sexes (250-300 gm, Charles River Laboratories, Wilmington, MA, USA) were injected with peptide plus equimolar ferric iron once daily by subcutaneous bolus injection, days 1-7; Treatment group sizes were (n=6): group S=sham-treated; group B=burn+vehicle; group V=burn+1 mg/kg V-nephrilin (V); group sV=burn+1 mg/kg sV-nephrilin (immX3N1sV); group T=burn+1 mg/kg Traumatin-3N1A. The first dose was administered after completion of the scald procedure. Injection volume was 400 uL. Control animals received the same volume of vehicle. On Day 8, animals received a single intraperitoneal injection of 2.5 mg/kg lipopolysaccharide (LPS; Sigma Cat #L-2880) and animals were then monitored by oximeter (MouseOx, Starr Life Sciences) for 4 hours, when respiratory distress (breath distension*breaths/min) was assessed relative to baseline. This was followed by sacrifice and tissue collection as in the published protocol, except that bronchoalveolar lavage (BAL) was collected and cells were recovered from BAL by centrifugation. These cells were stained with fluorescently-labeled antibodies for flow cytometry in order to ascertain granulocyte counts, as shown below. Results of the peptide comparison are presented in the table below. *p<0.05 vs “B” control. #p<0.05 vs “V” group.

[3] = Ferric iron-binding assay of biotinylated immodulin peptides; settings: N-terminally biotinylated peptide, 400 ng per well, 60 min room temperature; immX3AVD = 100
From the text: N-terminally biotinylated versions of the peptides listed below were used in ferric iron-binding assays involving either an Alexa488-labeled streptavidin protocol (Binding Assay 1) or FITC-NTA assay (Binding Assay 2). Fluorescence was standardized to binding with immX3AVD control peptide (100) and the average of multiple experiments using both protocols is shown. P values are shown relative to the control immX3AVD peptide (**<0.05). D-amino acid residues are underlined in the sequences and the extension tripeptide of immX peptides is shown in bold font. Binding Assay 1 was done as follows: NTA coated 96-well plates (G-Biosciences, St. Louis, MO) were charged with ferric chloride and contacted with equimolar biotinylated peptide: streptavidin-A488 complex (400 ng peptide per well) for 60 min at room temperature, washed with phosphate-buffered saline (PBS) and read at 525 nm in a fluorescence counter. Binding Assay 2 was done as follows: Streptavidin coated 96-well plates (G-Biosciences, St. Louis, MO) were contacted with 400 ng peptide per well in PBS buffer for 60 minutes at room temperature, washed in PBS, then contacted with FITC-NTA (TRC, Toronto, Canada) complexed with equimolar ferric chloride (10× molar equivalent per well) for 60 min at room temperature, washed with PBS and read at 525 nm in a fluorescence counter.

[4] = Experiment 4D binding to FITC-labelled heparin; settings: biotinylated peptide 1 ug/well; 1 ug FITC-labelled heparin, 90 minutes
Description: (§1) Streptavidin-coated 96-well plates (G-Biosciences, St. Louis, MO) were pre-treated with biotinylated peptides [see Example 1 for key] at 1 ug/well, at room temperature for 60 minutes. The plate was washed with PBS buffer and then 1 ug FITC-labelled heparin or hyaluronic acid in 100 uL PBS buffer was added per well (all tests in quadruplicate). Incubation proceeded for 90 minutes at room temperature, followed by two PBS washes. The plate was read in a standard laboratory fluorometer (488/525 nm exitation/[…]) and the counts normalized for immX3 peptide binding=100. Values statistically above background are shown in bold font. **p<0.05 versus immX3AVD.

[5] = Experiment 4D binding to FITC-labelled hyaluronic acid; settings: biotinylated peptide 1 ug/well; 1 ug FITC-labelled hyaluronic acid, 90 minutes
Description: as §1

[6] = Day 1, burn + 1 mg/kg peptide plus equimolar ferric iron, subcutaneous once daily
[7] = Day 8, after LPS, burn + 1 mg/kg peptide days 1-7

(rhn)-KKGFYKKKQCRPSKGRKRGFCW (rhein-KKGFYKKKQCRPSKGRKRGFCW; cysteine pairing not given here) [imm3rhn, imm3 N-terminally conjugated with rhein]
COL1 immunoreactivity in supernatants, control (buffer) set to 100 [1]: 68**

Traumatin-3N1A: a longer peptide also containing the immX extension (SEQ ID NO:35) (RGVTEDYLRLETLVQKVVSPYLKGFYKKKQCRPSKGRKRGFCWAVD)
Plasma IL-6 (pg/ml) [2, 6]: 22.5 ± 11*^ pg/ml
Plasma albumin mg/ml (24 hr IR) [2, 6]: 7.6 ± 0.9* mg/ml
Change in body weight (Pct vs Day 1) ([2]; Day 5, burn + 1 mg/kg peptide plus equimolar ferric iron, subcutaneous once daily): −5.3 ± 3.5* Pct
Respiratory distress (Gp. “S” = 100) ([2]; Day 8, 4 hours after LPS, burn + 1 mg/kg peptide days 1-7): 197 ± 39*#
Wet/dry lung weight (corrected for body weight) ([2]; Day 8, after LPS 2.5 mg/kg ip, burn + 1 mg/kg peptide days 1-7): 6.74 ± 0.61*
BAL fluid IL1-beta (pg/ml) [2, 7]: 45.7 ± 24*# pg/ml
Plasma OHDG (ng/ml) [2, 7]: 1.24 ± 0.4* ng/ml
Plasma creatinine (mg/dL) [2, 7]: 0.64 ± 0.2* mg/dL

(bex)-KKGFYKKKQCRPSKGRKRGFCW (not fully specified (N-terminus); printed as (bex)-KKGFYKKKQCRPSKGRKRGFCW; cysteine pairing not given here) [imm3bex]
COL1 immunoreactivity in supernatants, control (buffer) set to 100 [1]: 102

CC(C)[C@H](NC(=O)[C@H](Cc1ccccc1)NC(=O)[C@H](Cc1c[nH]c2ccccc12)NC(=O)[C@H](CS)NC(=O)[C@H](Cc1ccccc1)NC(=O)CNC(=O)[C@H](CCCNC(=N)N)NC(=O)[C@H](CCCCN)NC(=O)[C@H](CCCNC(=N)N)NC(=O)CNC(=O)[C@H](CCCCN)NC(=O)[C@H](CO)NC(=O)[C@@H]1CCCN1C(=O)[C@H](CCCNC(=N)N)NC(=O)[C@H](CS)NC(=O)[C@H](CCC(N)=O)NC(=O)[C@H](CCCCN)NC(=O)[C@H](CCCCN)NC(=O)[C@H](CCCCN)NC(=O)[C@H](Cc1ccc(O)cc1)NC(=O)[C@H](Cc1ccccc1)NC(=O)CNC(=O)[C@H](CCCCN)NC(=O)[C@@H](N)CCCCN)C(=O)N[C@@H](CO)C(=O)O [immX3FVS] (H-KKGFYKKKQCRPSKGRKRGFCWFVS-OH; N-terminus and C-terminus assumed)
Ferric iron binding, fluorescence standardized to immX3AVD control peptide (100), Avg ± SD [3]: 78.3 ± 6.5**

CCCCCCCCCC(=O)N[C@@H](CCCCN)C(=O)N[C@@H](CCCCN)C(=O)NCC(=O)N[C@@H](Cc1ccccc1)C(=O)N[C@@H](Cc1ccc(O)cc1)C(=O)N[C@@H](CCCCN)C(=O)N[C@@H](CCCCN)C(=O)N[C@@H](CCCCN)C(=O)N[C@@H](CCC(N)=O)C(=O)N[C@@H](CS)C(=O)N[C@@H](CCCNC(=N)N)C(=O)N1CCC[C@H]1C(=O)N[C@@H](CO)C(=O)N[C@@H](CCCCN)C(=O)NCC(=O)N[C@@H](CCCNC(=N)N)C(=O)N[C@@H](CCCCN)C(=O)N[C@@H](CCCNC(=N)N)C(=O)NCC(=O)N[C@@H](Cc1ccccc1)C(=O)N[C@@H](CS)C(=O)N[C@@H](Cc1c[nH]c2ccccc12)C(=O)O [imm3dec] (Decanoyl-KKGFYKKKQCRPSKGRKRGFCW-OH; C-terminus assumed)
COL1 immunoreactivity in supernatants, control (buffer) set to 100 [1]: 114

KKGFYKKKQCRPSKGRKRGFCW(dS)(dV)(dD) (KKGFYKKKQCRPSKGRKRGFCW[dS][dV][dD]; cysteine pairing not given here) [immX3dSdVdD]
Ferric iron binding, fluorescence standardized to immX3AVD control peptide (100), Avg ± SD [3]: 133.6±

RNGNFHPKQCHPALDGQRGKCWAVD [immX4AVD]
Ferric iron binding, fluorescence standardized to immX3AVD control peptide (100), Avg ± SD [3]: 1.2 ± 1.3**
Heparin binding, counts normalized for immX3 peptide binding=100 [4]: 7.3 ± 17.1
Hyaluronate binding, counts normalized for immX3 peptide binding=100 [5]: 61.1 ± 34.1

FNSYELGSLKKGFYKKKQCRPSKGRKRGFCW [imm3K8]
COL1 immunoreactivity in supernatants, control (buffer) set to 100 [1]: 98

AFNSYELGSKKGFYKKKQCRPSKGRKRGFCW [imm3K9.1]
COL1 immunoreactivity in supernatants, control (buffer) set to 100 [1]: 156**

AFNSYELGSKGFYKKKQCRPSKGRKRGFCW [imm3K9]
COL1 immunoreactivity in supernatants, control (buffer) set to 100 [1]: 155**

(cin)-KKGFYKKKQCRPSKGRKRGFCW ({cinnamic acid}-KKGFYKKKQCRPSKGRKRGFCW; cysteine pairing not given here) [imm3cin, imm3 N-terminally conjugated with cinnamic acid]
COL1 immunoreactivity in supernatants, control (buffer) set to 100 [1]: 106

RKGFYKRKQCKPSRGRKRGICWAVD [immX5AVD]
Ferric iron binding, fluorescence standardized to immX3AVD control peptide (100), Avg ± SD [3]: 88.1 ± 14.2
Heparin binding, counts normalized for immX3 peptide binding=100 [4]: 68.7 ± 26.2
Hyaluronate binding, counts normalized for immX3 peptide binding=100 [5]: 113.9 ± 15.7

KKGFYKKKQCRPSKGRKRGFCW[dA][dV][dD] (cysteine pairing not given here) [immX3dAdVdD]
Ferric iron binding, fluorescence standardized to immX3AVD control peptide (100), Avg ± SD [3]: 102.4 ± 9.1
Heparin binding, counts normalized for immX3 peptide binding=100 [4]: 55.5 ± 5.7**
Hyaluronate binding, counts normalized for immX3 peptide binding=100 [5]: 104.2 ± 14.7

CCCC(CCC)C(=O)N[C@@H](CCCCN)C(=O)N[C@@H](CCCCN)C(=O)NCC(=O)N[C@@H](Cc1ccccc1)C(=O)N[C@@H](Cc1ccc(O)cc1)C(=O)N[C@@H](CCCCN)C(=O)N[C@@H](CCCCN)C(=O)N[C@@H](CCCCN)C(=O)N[C@@H](CCC(N)=O)C(=O)N[C@@H](CS)C(=O)N[C@@H](CCCNC(=N)N)C(=O)N1CCC[C@H]1C(=O)N[C@@H](CO)C(=O)N[C@@H](CCCCN)C(=O)NCC(=O)N[C@@H](CCCNC(=N)N)C(=O)N[C@@H](CCCCN)C(=O)N[C@@H](CCCNC(=N)N)C(=O)NCC(=O)N[C@@H](Cc1ccccc1)C(=O)N[C@@H](CS)C(=O)N[C@@H](Cc1c[nH]c2ccccc12)C(=O)O [imm3vlp] ({Pentanoyl(2-Pr)}-KKGFYKKKQCRPSKGRKRGFCW-OH; C-terminus assumed)
COL1 immunoreactivity in supernatants, control (buffer) set to 100 [1]: 157**

(isf)-KKGFYKKKQCRPSKGRKRGFCW ({isoferulic acid}-KKGFYKKKQCRPSKGRKRGFCW; cysteine pairing not given here) [imm3isf, imm3 N-terminally conjugated with isoferulic acid]
COL1 immunoreactivity in supernatants, control (buffer) set to 100 [1]: 131*

AFNSYELGSKGFYKKKQCRPSKGRKRGFCWAVDKY [imm3K9c]
COL1 immunoreactivity in supernatants, control (buffer) set to 100 [1]: 158**

KKGFYKKKQCRPSKGRKRGFCW[dA]VD (cysteine pairing not given here) [immX3dAVD]
Ferric iron binding, fluorescence standardized to immX3AVD control peptide (100), Avg ± SD [3]: 108.1 ± 1.5

SLNPEWNETKGFYKKKQCRPSKGRKRGFCW[dA][dV][dD] (cysteine pairing not given here) [immX3K1dAdVdD]
Ferric iron binding, fluorescence standardized to immX3AVD control peptide (100), Avg ± SD [3]: 108.2 ± 6.6
Heparin binding, counts normalized for immX3 peptide binding=100 [4]: 56.0 ± 7.3**
Hyaluronate binding, counts normalized for immX3 peptide binding=100 [5]: 101.9 ± 16.4
